Test results: US20230114241A1, “METHODS OF TREATING EPILEPSY USING THE SAME” (Trevena, Inc., priority 2019, published 2023)

Tests used:
[1] = molecular target: T1, human sphingosine-1-phosphate receptor 1 (S1P1) (Homo sapiens, UniProt P21453); assay: Inhibition of cAMP production (HTRF cAMP HiRange), S1P1 CHO-K1 cells; type: cell-based; conditions: for Emax: CHO-K1, efficacy normalized to maximum efficacy of fingolimod, read-out: hS1P1 CAMP SPAN; for EC50: inhibition of cAMP production, S1P1, read-out: hS1P1 CAMP pEC50 (converted)
In short: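 CHO-K1 cells co-expressing human S1P1 (C-terminal ProLink tag) and EA-β-arrestin2, plated overnight; after 30 min compound incubation at 37 °C, intracellular cAMP measured by HTRF TR-FRET following 1 h at room temperature. Values normalized to fingolimod.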
Target sequence in this assay (P21453 whole entry): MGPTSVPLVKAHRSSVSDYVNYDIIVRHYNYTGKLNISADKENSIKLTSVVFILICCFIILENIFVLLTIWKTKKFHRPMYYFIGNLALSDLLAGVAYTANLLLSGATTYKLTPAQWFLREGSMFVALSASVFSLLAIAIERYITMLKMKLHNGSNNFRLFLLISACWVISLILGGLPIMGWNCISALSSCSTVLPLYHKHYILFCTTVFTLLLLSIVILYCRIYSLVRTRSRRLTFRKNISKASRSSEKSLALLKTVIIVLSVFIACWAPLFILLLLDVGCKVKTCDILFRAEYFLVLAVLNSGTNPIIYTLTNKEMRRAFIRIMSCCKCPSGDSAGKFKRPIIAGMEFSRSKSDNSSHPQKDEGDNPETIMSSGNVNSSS

[2] = molecular target: T1, human sphingosine-1-phosphate receptor 1 (S1P1); assay: β-Arrestin2 recruitment assay (PathHunter), S1P1 CHO-K1 cells; type: cell-based; conditions: for Emax: CHO-K1, efficacy normalized to maximum efficacy of fingolimod, read-out: hS1P1 B-arrestin2 SPAN; for EC50: β-arrestin2 recruitment, S1P1, read-out: hS1P1 B-arrestin2 pEC50 (converted)
In short: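 CHO-K1 cells co-expressing EA-β-arrestin2 and ProLink-tagged human S1P1 plated overnight, then stimulated 60 min at 37 °C. Enzyme-fragment complementation (β-galactosidase) detected after 1 h at room temperature by luminescence; values normalized to fingolimod.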
Target sequence in this assay (P21453 whole entry): as above
Target sequence in this assay (P32121 whole entry partner): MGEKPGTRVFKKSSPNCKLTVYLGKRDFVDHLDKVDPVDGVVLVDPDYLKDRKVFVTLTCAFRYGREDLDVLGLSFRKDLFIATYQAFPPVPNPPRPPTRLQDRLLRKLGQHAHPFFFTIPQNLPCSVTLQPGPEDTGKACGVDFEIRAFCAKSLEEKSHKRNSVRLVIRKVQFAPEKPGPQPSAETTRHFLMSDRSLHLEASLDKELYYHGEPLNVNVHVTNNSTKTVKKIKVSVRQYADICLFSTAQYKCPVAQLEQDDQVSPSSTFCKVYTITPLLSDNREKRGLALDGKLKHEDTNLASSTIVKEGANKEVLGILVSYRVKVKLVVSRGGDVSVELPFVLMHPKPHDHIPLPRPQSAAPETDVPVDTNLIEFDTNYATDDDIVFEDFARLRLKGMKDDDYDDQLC

SMILES	Emax [1] [%]	EC50 [1] [µM]	Emax [2] [%]	EC50 [2] [µM]
CC(C)n1ccc2cc(-c3nc(-c4ccccc4F)ns3)ccc21 [Compound 374, 5-[3-(2-fluorophenyl)-1,2,4-thiadiazol-5-yl]-1-(propan-2-yl)-1H-indole]	< 75	> 0.316	< 75	> 10
Cc1ccncc1-c1noc(-c2ccc3ccsc3n2)n1 [Compound 376, 4-methyl-3-(5-{thieno[2,3-b]pyridin-6-yl}-1,2,4-oxadiazol-3-yl)pyridine]	< 75	> 0.316	< 75	> 10
CN1C(=O)Cc2cc(-c3nc(-c4cccnc4)no3)ccc21 [Compound 377, 1-methyl-5-[3-(pyridin-3-yl)-1,2,4-oxadiazol-5-yl]-2,3-dihydro-1H-indol-2-one]	< 75	> 0.316	< 75	> 10
CC(C)n1ccc2cc(-c3nsc(-c4ccccc4F)n3)ccc21 [Compound 380, 5-[5-(2-fluorophenyl)-1,2,4-thiadiazol-3-yl]-1-(propan-2-yl)-1H-indole]	< 75	> 0.316	< 75	> 10
Cc1ccccc1-c1nsc(-c2ccc3c(ccn3C(C)C)c2)n1 [Compound 381, 5-[3-(2-methylphenyl)-1,2,4-thiadiazol-5-yl]-1-(propan-2-yl)-1H-indole]	< 75	> 0.316	< 75	< 10
Cc1ccccc1-c1noc(-c2cnc3c(c2)nnn3C(C)C)n1 [Compound 382, 3-(2-methylphenyl)-5-[3-(propan-2-yl)-3H-[1,2,3]triazolo[4,5-b]pyridin-6-yl]-1,2,4-oxadiazole]	> 75	< 0.316	> 75	< 10
COc1ccccc1-c1noc(-c2cnc3c(c2)nnn3C(C)C)n1 [Compound 383, 3-(2-methoxyphenyl)-5-[3-(propan-2-yl)-3H-[1,2,3]triazolo[4,5-b]pyridin-6-yl]-1,2,4-oxadiazole]	> 75	< 0.316	> 75	< 10
O=C1CCc2cc(-c3nc(-c4cccnc4)no3)ccc2N1 [Compound 386, 6-[3-(pyridin-3-yl)-1,2,4-oxadiazol-5-yl]-1,2,3,4-tetrahydro-quinolin-2-one]	> 75	> 0.316	< 75	> 10
CC(C)n1ccc2cc(-c3noc(-c4ccncc4)n3)ccc21 [Compound 395, 3-(1-isopropyl-1H-indol-5-yl)-5-(pyridin-4-yl)-1,2,4-oxadiazole]	< 75	< 0.316	> 75	< 10
CC(C)n1ccc2cc(-c3noc(-c4cccnc4)n3)ccc21 [Compound 396, 3-(1-isopropyl-1H-indol-5-yl)-5-(pyridin-3-yl)-1,2,4-oxadiazole]	< 75	> 0.316	> 75	> 10
CC(C)n1ccc2cc(-c3noc(-c4ccncc4F)n3)ccc21 [Compound 399, 5-(3-fluoropyridin-4-yl)-3-(1-isopropyl-1H-indol-5-yl)-1,2,4-oxadiazole]	> 75	< 0.316	< 75	< 10
COc1ccccc1-c1csc(-c2cnc3c(ccn3C(C)C)c2)n1 [Compound 401, 2-(1-isopropyl-1H-pyrrolo[2,3-b]pyridin-5-yl)-4-(2-methoxy-phenyl)thiazole]	< 75	> 0.316	< 75	> 10
CC(C)n1ccc2cc(-c3nc(-c4ccccc4F)cs3)cnc21 [Compound 402, 4-(2-fluorophenyl)-2-(1-isopropyl-1H-pyrrolo[2,3-b]pyridin-5-yl)thiazole]	< 75	< 0.316	< 75	> 10
COc1cccc(-c2csc(-c3ccc4c(ccn4C(C)C)c3)n2)c1 [Compound 405, 2-(1-isopropylindol-5-yl)-4-(3-methoxy-phenyl)thiazole]	< 75	> 0.316	< 75	> 10
Cc1ccccc1-c1csc(-c2cnc3c(ccn3C(C)C)c2)n1 [Compound 407, 2-(1-isopropyl-pyrrolo[2,3-b]pyridin-5-yl)-4-(o-tolyl)thiazole]	> 75	> 0.316	< 75	> 10
CC(C)n1ccc2cc(-c3nc(-c4ccccc4C(F)(F)F)cs3)cnc21 [Compound 408, 2-(1-isopropylpyrrolo[2,3-b]pyridin-5-yl)-4-[2-(trifluoromethyl)phenyl] thiazole]	> 75	> 0.316	< 75	> 10
Cc1ccccc1-c1csc(-c2ccc3c(ccn3C(C)C)n2)n1 [Compound 409, 2-(1-isopropyl-pyrrolo [3,2-b]pyridin-5-yl)-4-(o-tolyl)thiazole]	> 75	> 0.316	< 75	> 10
COc1cccc(-c2csc(-c3ccc4c(ccn4C(C)C)n3)n2)c1 [Compound 410, 2-(1-isoproplpyrrolo[3,2-b]pyridin-5-yl)-4-(3-methoxyphenyl)thiazole]	< 75	> 0.316	< 75	> 10
COc1ccccc1-c1csc(-c2ccc3c(ccn3C(C)C)n2)n1 [Compound 411, 2-(1-isopropyl-1H-pyrrolo[3,2-b]pyridin-5-yl)-4-(2-methoxyphenyl)thiazole]	< 75	> 0.316	< 75	> 10
CC(C)n1ccc2nc(-c3nc(-c4ccccc4Br)cs3)ccc21 [Compound 412, 4-(2-bromophenyl)-2-(1-isopropyl-1H-pyrrolo[3,2-b]pyridin-5-yl)thiazole]	> 75	> 0.316	< 75	> 10

Continued, values first:

Emax [1] [%]	EC50 [1] [µM]	Emax [2] [%]	EC50 [2] [µM]	SMILES
> 75	< 0.316	> 75	< 10	COc1ccccc1-c1noc(-c2ccc3c(ccn3C(C)C)c2)n1 [Compound 372, 5-(1-isopropyl-1H-indol-5-yl)-3-(2-methoxy-phenyl)-1,2,4-oxadiazole]
> 75	> 0.316	> 75	> 10	COc1ccccc1-c1noc(-c2ccc3c(c2)ncn3C(C)C)n1 [Compound 373, 5-(1-isopropyl-1H-benzo[d]imidazol-5-yl)-3-(2-methoxy-phenyl)-1,2,4-oxadiazole]
> 75	< 0.316	< 75	< 10	COc1ccccc1-c1nc(-c2ccc3c(ccn3C(C)C)c2)ns1 [Compound 375, 5-[5-(2-methoxy-phenyl)-1,2,4-thiadiazol-3-yl]-1-(propan-2-yl)-1H-indole]
> 75	> 0.316	> 75	< 10	CC(C)n1ccc2cc(-c3noc(-c4ccccc4F)n3)ccc21 [Compound 387, 5-(2-fluorophenyl)-3-(1-isopropyl-1H-indol-5-yl)-1,2,4-oxadiazole]
> 75	< 0.316	> 75	< 10	CC(C)n1ccc2cc(-c3noc(-c4ccccc4Br)n3)ccc21 [Compound 388, 5-(2-bromophenyl)-3-(1-isopropyl-1H-indol-5-yl)-1,2,4-oxadiazole]
> 75	< 0.316	> 75	< 10	Cc1ccccc1-c1nc(-c2ccc3c(ccn3C(C)C)c2)no1 [Compound 389, 3-(1-isopropyl-1H-indol-5-yl)-5-(o-tolyl)-1,2,4-oxadiazole]
> 75	< 0.316	< 75	< 10	CC(C)n1ccc2cc(-c3noc(-c4ccccc4C(F)(F)F)n3)ccc21 [Compound 390, 3-(1-isopropyl-1H-indol-5-yl)-5-(2-(trifluoromethyl)phenyl)-1,2,4-oxadiazole]
< 75	> 0.316	< 75	> 10	COc1cccc(-c2nc(-c3ccc4c(ccn4C(C)C)c3)no2)c1 [Compound 392, 3-(1-isopropyl-1H-indol-5-yl)-5-(3-methoxyphenyl)-1,2,4-oxadiazole]
< 75	> 0.316	< 75	> 10	COc1ccc(-c2nc(-c3ccc4c(ccn4C(C)C)c3)no2)cc1 [Compound 393, 3-(1-isopropyl-1H-indol-5-yl)-5-(4-methoxyphenyl)-1,2,4-oxadiazole]
< 75	> 0.316	< 75	< 10	CC(C)n1ccc2cc(-c3noc(-c4cccc(F)c4)n3)ccc21 [Compound 394, 5-(3-fluorophenyl)-3-(1-isopropyl-1H-indol-5-yl)-1,2,4-oxadiazole]
< 75	> 0.316	> 75	> 10	CC(C)n1ccc2cc(-c3noc(-c4ccccn4)n3)ccc21 [Compound 397, 3-(1-isopropyl-1H-indol-5-yl)-5-(pyridin-2-yl)-1,2,4-oxadiazole]
< 75	> 0.316	< 75	> 10	CC(C)n1ccc2cc(-c3noc(-c4ccc(F)cc4)n3)ccc21 [Compound 400, 5-(4-fluorophenyl)-3-(1-isopropyl-1H-indol-5-yl)-1,2,4-oxadiazole]
